Assay results taken from patent US20150011508A1, “COMPOUNDS AND COMPOSITIONS AS C-KIT KINASE INHIBITORS” (priority 2011, published 2015).

Biological target: T1, c-kit (Homo sapiens, UniProt P10721)
T1 construct: human Mo7e cells which endogenously express c-kit; endogenous in cells; host or cells: human Mo7e cells (SCF-dependent promegakaryocytic leukemia line)
Experiment: Mo7e cell proliferation assay (SCF dependent proliferation)
Format: cell-based
Procedure: Compounds of Formula (I) and Formula (II) provided herein were assayed to measure their capacity to inhibit c-kit and PDGFR kinases using the appropriate assay described below: c-Kit inhibition was evaluated using the Mo7e cell proliferation assay, and PDGFR inhibition was evaluated using the Rat A10 cell proliferation assay and the Human TGHA-VSMC cell proliferation assay.
The compounds of Table 1 and Table 2 were tested for inhibition of SCF dependent proliferation using human Mo7e cells which endogenously express c-kit in a 384 well format. […] After 48 hours of incubation at 37° C., cell viability was measured by adding 25 uL of CellTiter Glo (Promega) to the cells and the luminescence was measured by a CLIPR CCD camera (Molecular Devices).
The IC50 value is given as that concentration of the test compound in question that provoke a response halfway between the baseline and maximum responses.

[1] = Table 1, human Mo7e cells stimulated with human recombinant SCF, 48 h, CellTiter Glo, 1% FBS (footnote)
[2] = Table 2, human Mo7e cells stimulated with human recombinant SCF, 48 h, CellTiter Glo, 1% FBS (footnote)

T1 sequence (P10721 26-976): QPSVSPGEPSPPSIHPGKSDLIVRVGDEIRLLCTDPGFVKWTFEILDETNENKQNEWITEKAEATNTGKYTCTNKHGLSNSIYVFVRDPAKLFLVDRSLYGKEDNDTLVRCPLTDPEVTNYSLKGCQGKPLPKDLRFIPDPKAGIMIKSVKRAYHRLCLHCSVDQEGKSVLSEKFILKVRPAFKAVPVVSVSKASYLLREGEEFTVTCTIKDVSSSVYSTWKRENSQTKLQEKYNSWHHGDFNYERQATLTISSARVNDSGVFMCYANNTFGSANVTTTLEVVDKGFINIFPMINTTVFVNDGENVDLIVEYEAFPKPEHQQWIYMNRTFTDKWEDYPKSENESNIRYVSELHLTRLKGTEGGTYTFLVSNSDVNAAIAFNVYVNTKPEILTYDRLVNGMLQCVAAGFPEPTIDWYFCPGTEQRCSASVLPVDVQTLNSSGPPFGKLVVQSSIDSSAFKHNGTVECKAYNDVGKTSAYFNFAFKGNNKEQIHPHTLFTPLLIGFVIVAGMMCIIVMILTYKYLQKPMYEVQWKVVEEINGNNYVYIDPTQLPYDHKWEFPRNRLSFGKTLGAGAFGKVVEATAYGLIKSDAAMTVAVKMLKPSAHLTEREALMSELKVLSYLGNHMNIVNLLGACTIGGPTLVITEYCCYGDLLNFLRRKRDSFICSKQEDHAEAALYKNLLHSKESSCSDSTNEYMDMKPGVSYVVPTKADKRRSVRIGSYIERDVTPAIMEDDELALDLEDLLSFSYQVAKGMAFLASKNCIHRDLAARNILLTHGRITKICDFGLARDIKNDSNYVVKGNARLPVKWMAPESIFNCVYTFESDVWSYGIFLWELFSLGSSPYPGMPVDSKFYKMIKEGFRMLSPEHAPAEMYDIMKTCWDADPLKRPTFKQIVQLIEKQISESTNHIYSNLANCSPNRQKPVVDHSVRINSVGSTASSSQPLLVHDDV

IC50 [1] [nM]	IC50 [2] [nM]	Structure (SMILES)	other results
82	–	Cc1ccc(-c2noc(CC(C)(O)C(F)(F)F)n2)cc1NC(=O)c1cnc2ccccn12 (stereo not drawn) [F15]	–
98	–	Cc1ccc2ncc(C(=O)Nc3cc(-c4noc(CCC(C)(C)O)n4)ccc3C)n2c1 [F57]	–
5	–	Cc1ccc(-c2noc(CCCC(F)(F)F)n2)cc1NC(=O)c1cnc2ccccn12 [F80]	–
59	–	COCCOCc1nc(-c2ccc(C)c(NC(=O)c3cnc4ccccn34)c2)no1 [F26]	–
–	1320	CC(=O)NCCCc1nc(-c2ccc(C)c(NC(=O)c3cnc4ccccn34)c2)no1 [F222]	–
–	192	Cc1ccc(-c2noc(COCCO)n2)cc1NC(=O)c1cnc2ccccn12 [F163]	–
–	735	Cc1ccc(-c2noc(CCS(N)(=O)=O)n2)cc1NC(=O)c1cnc2ccccn12 [F116]	–
42	–	Cc1ccc(-c2noc(CC[C@@](C)(O)C(F)(F)F)n2)cc1NC(=O)c1cnc2ccc(F)cn12 [F88]	–
–	805	COCc1n[nH]c(-c2ccc3ncc(C(=O)Nc4cc(-c5noc(CCC(C)(C)O)n5)ccc4C)n3c2)n1 [F214]	–
–	318	CCNC(=O)Cc1nc(-c2ccc(C)c(NC(=O)c3cnc4ccccn34)c2)no1 [F209]	–
38	–	Cc1ccc(-c2noc(CC[C@](C)(O)C(F)(F)F)n2)cc1NC(=O)c1cnc2ccc(F)cn12 [F85]	–
63	–	Cc1ccc(-c2noc(CCC(C)(C)O)n2)cc1NC(=O)c1cnc2ccccn12 [F8, N-(5-(5-(3-hydroxy-3-methylbutyl)-1,2,4-oxadiazol-3-yl)-2-methylphenyl)imidazo[1,2-a]pyridine-3-carboxamide]	–
–	326	COC(=O)NCCc1nc(-c2ccc(C)c(NC(=O)c3cnc4ccccn34)c2)no1 [F122]	–
87	–	Cc1ccc(-c2noc(CCC(C)O)n2)cc1NC(=O)c1cnc2ccccn12 (stereo not drawn) [F9, N-(5-(5-(3-hydroxybutyl)-1,2,4-oxadiazol-3-yl)-2-methylphenyl)imidazo[1,2-a]pyridine-3-carboxamide]	–
–	156	Cc1ccc(-c2noc(CN(C)S(C)(=O)=O)n2)cc1NC(=O)c1cnc2ccccn12 [F144, N-(2-methyl-5-(5-((N-methylmethylsulfonamido)methyl)-1,2,4-oxadiazol-3-yl)phenyl)imidazo[1,2-a]pyridine-3-carboxamide]	–
–	166	Cc1ccc2ncc(C(=O)Nc3cc(-c4noc(NCC(C)(C)O)n4)ccc3C)n2c1 [F193]	–
–	173	Cc1ccc(-c2noc(CF)n2)cc1NC(=O)c1cnc2ccccn12 [F161]	–
18	–	Cc1ccn2c(C(=O)Nc3cc(-c4noc(CCC(O)C(F)(F)F)n4)ccc3C)cnc2c1 (stereo not drawn) [F98]	–

IC50 [1] [nM]	IC50 [2] [nM]	Structure (SMILES)	other results
–	108	Cc1ccn2c(C(=O)Nc3cc(-c4noc(CCC(C)(C)OC(=O)CN)n4)ccc3C)cnc2c1 [F249]	–
–	142	Cc1ccn2c(C(=O)Nc3cc(-c4noc(CC[C@@](C)(OC(=O)[C@@H](N)C(C)C)C(F)(F)F)n4)ccc3C)cnc2c1 [F251]	–
44	–	COCCCc1nc(-c2ccc(C)c(NC(=O)c3cnc4ccccn34)c2)no1 [F3]	–
61	–	Cc1ccc(-c2noc(CNC(=O)OC(C)C)n2)cc1NC(=O)c1cnc2ccccn12 [F30]	–
92	–	Cc1ccc(-c2noc(CCC(=O)OC(C)C)n2)cc1NC(=O)c1cnc2ccccn12 [F55a, isopropyl 3-(3-(3-(imidazo[1,2-a]pyridine-3-carboxamido)-4-methylphenyl)-1,2,4-oxadiazol-5-yl)propanoate]	–
43	–	Cc1ccc(-c2noc(CNC(=O)CC(F)(F)F)n2)cc1NC(=O)c1cnc2ccccn12 [F35]	–
–	233	Cc1ccc(-c2noc(CC(C)(C)O)n2)cc1NC(=O)c1cnc2ccccn12 [F138]	–
16	–	Cc1ccn2c(C(=O)Nc3cc(-c4noc(CCC(C)(O)C(F)(F)F)n4)ccc3C)cnc2c1 (stereo not drawn) [F67, 7-methyl-N-(2-methyl-5-(5-(4,4,4-trifluoro-3-hydroxy-3-methylbutyl)-1,2,4-oxadiazol-3-yl)phenyl)imidazo[1,2-a]pyridine-3-carboxamide]	–
–	217	Cc1ccc(-c2noc(CO)n2)cc1NC(=O)c1cnc2ccccn12 [F124]	–
52	–	Cc1ccn2c(C(=O)Nc3cc(-c4noc(CCC(C)(C)O)n4)ccc3C)cnc2c1 [F50, N-(5-(5-(3-hydroxy-3-methylbutyl)-1,2,4-oxadiazol-3-yl)-2-methylphenyl)-7-methylimidazo[1,2-a]pyridine-3-carboxamide]	–
48	–	Cc1ccc(-c2noc(CCC(C)(C)O)n2)cc1NC(=O)c1cnc2cc(C3CC3)ccn12 [F64]	–
–	527	CCNC(=O)CCc1nc(-c2ccc(C)c(NC(=O)c3cnc4ccccn34)c2)no1 [F118]	–
10	–	Cc1ccn2c(C(=O)Nc3cc(-c4noc(COCC(F)(F)F)n4)ccc3C)cnc2c1 [F77]	–
55	–	CCN(Cc1nc(-c2ccc(C)c(NC(=O)c3cnc4ccccn34)c2)no1)C(=O)OC(C)(C)C [F21]	–
–	364	Cc1ccc(-c2noc(CCCNC(=O)OC(C)(C)C)n2)cc1NC(=O)c1cnc2ccccn12 [F111]	–
–	272	Cc1ccc(-c2noc(CCC(C)(C)O)n2)cc1NC(=O)c1cnc2cc(N3CCOC3=O)ccn12 [F191]	–
–	2380	Cc1ccc(-c2noc(CC#N)n2)cc1NC(=O)c1cnc2ccccn12 [F227]	–
–	1190	Cc1ccc(-c2noc(C[C@@H](C)N)n2)cc1NC(=O)c1cnc2ccccn12 [F219]	–

The next lines start with the compound.

Structure (SMILES)	IC50 [1] [nM]	IC50 [2] [nM]	other results
COP(=O)(OC)OC(C)(CCc1nc(-c2ccc(C)c(NC(=O)c3cnc4cc(C)ccn34)c2)no1)C(F)(F)F (single isomer, unassigned) [F269]	50	–	–
Cc1nc(-c2ccc(C)c(NC(=O)c3cnc4ccc(-c5cnn(C)c5)cn34)c2)no1 [F44]	25	–	–
COC(=O)N[C@H](C)Cc1nc(-c2ccc(C)c(NC(=O)c3cnc4ccccn34)c2)no1 [F150]	–	196	–
COC(=O)NCc1nc(-c2ccc(C)c(NC(=O)c3cnc4ccc(F)cn34)c2)no1 [F167, methyl (3-(3-(6-fluoroimidazo[1,2-a]pyridine-3-carboxamido)-4-methylphenyl)-1,2,4-oxadiazol-5-yl)methylcarbamate]	–	166	–
COc1ccncc1-c1ccc2ncc(C(=O)Nc3cc(-c4noc(C)n4)ccc3C)n2c1 [F102]	87	–	–
[2H]c1c([2H])c([2H])n2c(C(=O)Nc3cc(-c4noc(COCCOC)n4)ccc3C)cnc2c1[2H] [F53, N-(5-(5-((2-methoxyethoxy)methyl)-1,2,4-oxadiazol-3-yl)-2-methylphenyl)5,6,7,8,deutero-imidazo[1,2-a]pyridine-3-carboxamide]	61	–	–
COCCOCc1nc(-c2cc(NC(=O)c3cnc4ccccn34)c(C)cc2F)no1 [F155]	–	396	–
CCCC(C)c1nc(-c2ccc(C)c(NC(=O)c3cnc4ccc(C)cn34)c2)no1 (stereo not drawn) [F59]	22	–	–
Cc1ccc(-c2noc(COCC(F)(F)F)n2)cc1NC(=O)c1cnc2ccccn12 [F39]	8	–	–
Cc1ccc(-c2noc(C[C@@H](C)NS(C)(=O)=O)n2)cc1NC(=O)c1cnc2ccccn12 [F149]	–	220	–
Cc1ccc(-c2noc(C(O)C(F)(F)F)n2)cc1NC(=O)c1cnc2ccccn12 (stereo not drawn) [F162]	–	266	–
COCCCc1nc(-c2ccc(F)c(NC(=O)c3cnc4ccccn34)c2)no1 [F139]	–	394	–
Cc1nc(-c2ccc(C)c(NC(=O)c3cnc4ccc(-c5nc(C)c(C(=O)NCCN6CCN(C)CC6)s5)cn34)c2)no1 [F243]	–	194	–
[2H]c1c([2H])c([2H])n2c(C(=O)Nc3cc(-c4noc(CC=C(C)C)n4)ccc3C)cnc2c1[2H] [F52]	16	–	–
Cc1nc(-c2ccc(C)c(NC(=O)c3cnc4ccc(-c5sc(C)nc5C)cn34)c2)no1 [F48]	7	–	–
O=C(Nc1cc(-c2noc(CC(O)(C(F)(F)F)C(F)(F)F)n2)ccc1F)c1cnc2ccccn12 [F153]	–	246	–
Cc1nc(-c2ccc(C)c(NC(=O)c3cnc4ccc(-c5sc(C(N)=O)nc5C)cn34)c2)no1 [F264, 4-methyl-5-(3-((2-methyl-5-(5-methyl-1,2,4-oxadiazol-3-yl)phenyl)carbamoyl)imidazo[1,2-a]pyridin-6-yl)thiazole-2-carboxamide]	38	–	–
COC(=O)NC(C)(C)c1nc(-c2ccc(C)c(NC(=O)c3cnc4ccccn34)c2)no1 [F148]	–	208	–
Cc1nc(-c2ccc(C)c(NC(=O)c3cnc4ccc(-c5cscn5)cn34)c2)no1 [F47]	50	–	–
Cc1nc(-c2ccc(C)c(NC(=O)c3cnc4ccc(-c5nc(C)c(C(=O)NCCO)s5)cn34)c2)no1 [F242]	–	155	–
Cc1ccc(-c2noc(C(F)C(F)(F)F)n2)cc1NC(=O)c1cnc2ccccn12 (stereo not drawn) [F199]	–	126	–
CC(C)(C)OC(=O)NCc1nc(-c2ccc(F)c(NC(=O)c3cnc4ccccn34)c2)no1 [F152]	–	207	–
Cc1ccc(-c2noc(CC(O)(C(F)(F)F)C(F)(F)F)n2)cc1NC(=O)c1cnc2ccccn12 [F16]	22	–	–
CC(=O)CCc1ccc2ncc(C(=O)Nc3cc(-c4noc(C)n4)ccc3C)n2c1 [F180]	–	356	–
Cc1ccc(-c2noc(C(F)F)n2)cc1NC(=O)c1cnc2ccccn12 [F160]	–	480	–
Cc1nc(-c2ccc(C)c(NC(=O)c3cnc4ccc(-c5nc(C)c(C(=O)NCCN6CCOCC6)s5)cn34)c2)no1 [F245]	–	120	–
CC(=O)N[C@@H](C)c1nc(-c2ccc(C)c(NC(=O)c3cnc4ccccn34)c2)no1 [F213]	–	795	–
Cc1ccc(-c2noc(CNC(=O)CCC(F)(F)F)n2)cc1NC(=O)c1cnc2ccccn12 [F154]	–	182	–
Cc1ccc(-c2noc([C@H](C)NS(C)(=O)=O)n2)cc1NC(=O)c1cnc2ccccn12 [F136]	–	145	–
Cc1ccc(-c2nc(CC(=O)N(C)C)no2)cc1NC(=O)c1cnc2ccccn12 [F233]	–	–	IC50 (Table 2, values marked *: 20% FBS instead of 1% FBS): > 6000 nM
